Source: patent US20190359653A1, “SELECTIVE PEPTIDE INHIBITORS OF FRIZZLED” (Genentech, Inc., priority 2016, published 2019)
Entries after “also recorded” stand apart in the source; their conditions may differ.

Columns and labels:
[1] = molecular target: T1, Wnt5a binding to FZD4 CRD (Homo sapiens, UniProt Q9ULV1); assay: ELISA of biotinylated Wnt5a binding to FZD CRD-Fc; conditions: peptide 0-10 μM
T1 construct: hFZD4 CRD-Fc (cat no. 5847-FZ); purchased R&D systems 5847-FZ
T1 sequence (Q9ULV1 40-161 limits assumed): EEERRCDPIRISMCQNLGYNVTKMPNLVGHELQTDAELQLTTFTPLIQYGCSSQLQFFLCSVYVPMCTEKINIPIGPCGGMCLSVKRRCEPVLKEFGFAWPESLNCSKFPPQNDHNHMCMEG
Experimental: (§1) 384-well Maxisorp plates (cat. no. 464718; Thermo Scientific) were incubated with 30 μL of Neutravidin (cat. no. 31000, Thermo Scientific; 2 μg/mL in PBS) overnight at 4° C. Plates were then washed with PBST and blocked with PBS/1% BSA for 1 hour at RT and then washed with PBST prior to further processing. The binding assay was conducted in 96 well plates (cat no. 83007-374; VWR) which were blocked with PBS/1% BSA overnight at 4° C. hFZD4 CRD-Fc or hFZD7 CRD-Fc (63 ng/mL) were incubated with either Bio-Wnt3a (25 ng/mL) or Bio-Wnt5a (50 ng/mL) in the presence of 4-fold serial dilutions of the indicated peptide in PBS overnight at 4° C. All assays included hFZD9 CRD-mIgG2A protein as a negative control. hFZD7 CRD-His was suspended in 150 mM NaCl, 50 mM Tris-HCl at pH 7.5 and when used in assays an equal volume of the same buffer control was used. The binding assay mixtures were transferred to the Neutravidin coated plates and incubated for ˜1 h at RT. The wells were then washed with PBST, incubated with anti-hIgG1-HRP (1:10,000 suspended in PBS supplemented with 1% BSA; cat. no. A18817, Invitrogen), and washed again with PBST. The signal was developed with the addition of TMB reagent (following the manufacturer's recommendation; KPL; 50-76-00) for 15 min prior to the addition of an equal volume of 1 M phosphoric acid for 10 min Absorbance was measured at 450 nm using a Tekan M1000 plate reader. Values were collected and plotted using Prism Graphpad software. All assay conditions using peptides were at 1% DMSO final concentration. […]
(§2) Briefly, the assays were performed using (a) FZD1 CRD-Fc, (b) FZD2 CRD-Fc, (c) FZD4 CRD-Fc, or (d) FZD7 CRD-Fc as the capture reagent and biotinylated-Wnt5a as the detection reagent. […] Streptavidin-HRP was used to detect biotinylated Wnt5a, and HRP activity was measured as a function of chemiluminescence detection at 428 nm. […]

[2] = tested on: mouse intestinal organoids; assay: organoid budding / stem cell potential; type: cell-based; conditions: 48 h; dFz7-21 1-200 μM, Fz7-21S 200 μM; FIG. 18
Experimental: Mouse organoids were established from isolated crypts collected from the entire length of the small intestine and maintained as previously described (Sato et al. (2009) Nature 459, 262-265 (2009). All mouse derived tissue was performed according to the animal use guidelines of Genentech, a Member of the Roche Group, and the Institutional Animal Care and Use Committee, conforming to California State legal and ethical practices. Mouse sex was not selected for. Organoids were passaged at least twice per week and grown using IntestiCult Organoid growth media (cat. no. 06005; StemCell Technologies). […]
The organoid culture system faithfully recapitulates the intestinal epithelium including the presence of crypt-villus morphology. […] Therefore, stem cell function of the organoid population (a Wnt-dependent process) was quantitatively assessed by scoring the number of formed buds per organoid (Grabinger et al. (2014) “Ex vivo culture of intestinal crypt organoids as a model system for assessing cell death induction in intestinal epithelial cells and enteropathy.” Cell Death & Disease 5, e1228). […] Morphologies of representative mouse intestinal organoids after 48 h treatment are shown in FIGS. 17A-G. Next, organoid stem cell (SC) potential after peptide treatment was quantified. […]

[3] = tested on: Wnt5a binding to FZD1 CRD, FZD2 CRD, and FZD7 CRD; assay: ELISA of biotinylated Wnt5a binding to FZD CRD-Fc
Experimental: as §1, §2

Row | Sequence | effect on Wnt5a binding to FZD4 CRD [1] | budding events / organoid stem cell potential [2] | peptide concentration with the most Wnt5a binding ([3]; FIGS. 22A, 22B) | effect on Wnt5a binding to FZD1, FZD2 and FZD7 CRD ([3]; peptide 0-10 μM)
1 | LPSDDLEFWCHVMY [dFz7-21] | did not show any effect; also recorded: no such effect | dramatically reduced | 0.05 µM | –
2 | LPSDDLEFWSHVMY [Fz7-21S, negative control] | showed no effect | did not show any major effects | – | showed no effect
